Structures can show the parent of a compound that is named as a salt.
Key:
thromboxane synthetase = target: T1, thromboxane synthetase (Homo sapiens, UniProt P24557); assay: Thromboxane A2 (TxA2) synthetase inhibition, human platelet microsomes, rabbit aorta bioassay; type: biochemical; conditions: test compound pre-incubated with enzyme for 5 minutes, read-out: Molar concentration causing 50% inhibition of thromboxane synthetase
T1 construct: human platelet microsomes; from tissue; host or cells: human blood platelets (microsomes, indomethacin pre-treated)
T1 sequence (P24557 1-533): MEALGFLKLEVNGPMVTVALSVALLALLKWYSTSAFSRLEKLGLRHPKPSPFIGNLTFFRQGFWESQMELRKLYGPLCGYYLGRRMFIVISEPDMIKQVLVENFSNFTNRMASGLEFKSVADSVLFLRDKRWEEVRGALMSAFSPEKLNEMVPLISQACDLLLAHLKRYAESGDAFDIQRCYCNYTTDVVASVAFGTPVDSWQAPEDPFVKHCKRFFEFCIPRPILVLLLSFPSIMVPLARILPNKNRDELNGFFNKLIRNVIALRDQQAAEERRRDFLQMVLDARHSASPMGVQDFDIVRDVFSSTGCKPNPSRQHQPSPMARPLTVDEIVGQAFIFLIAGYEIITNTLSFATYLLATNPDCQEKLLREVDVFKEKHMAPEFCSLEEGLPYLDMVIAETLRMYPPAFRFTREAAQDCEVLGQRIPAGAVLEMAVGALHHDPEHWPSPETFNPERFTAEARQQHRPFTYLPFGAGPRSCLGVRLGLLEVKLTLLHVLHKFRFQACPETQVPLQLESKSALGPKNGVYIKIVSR
Procedure: 3. Thromboxane A2 (TxA2) Synthetase
Indomethacin pre-treated human platelet microsomes (Science, 1976, 193, 163) are incubated (2 min.: 0° C.) with PGH2 (produced as in 1) and aliquots of the reaction mixture superfused over two rabbit aorta spirals which are separated by a delay coil (2 min.). The latter is required to allow the selective decay of the more unstable thromboxane A2 (Proc. Nat. Acad. Sci., 1975, 72, 2994) thereby enabling the separate measurement of increased isometric tension due to the TxA2 formed and the PGH2 remaining. The test compound is pre-incubated with enzyme for 5 minutes, and its ability to inhibit the thromboxane synthetase enzyme is measured as its reduction of the TxA2 component of the isometric tension.

prostacyclin synthetase [1] = target: T2, prostacyclin synthetase (Sus scrofa, UniProt A0A5G2QT35); assay: Prostacyclin (PGI2) synthetase inhibition, pig aorta microsomes, rabbit aorta bioassay; type: biochemical; conditions: test compound pre-incubated with enzyme for 5 minutes, read-out: Molar concentration causing 50% inhibition of prostacyclin synthetase
T2 construct: Pig aorta microsomes; from tissue; host or cells: pig aorta (microsomes)
T2 sequence (A0A5G2QT35 1-497): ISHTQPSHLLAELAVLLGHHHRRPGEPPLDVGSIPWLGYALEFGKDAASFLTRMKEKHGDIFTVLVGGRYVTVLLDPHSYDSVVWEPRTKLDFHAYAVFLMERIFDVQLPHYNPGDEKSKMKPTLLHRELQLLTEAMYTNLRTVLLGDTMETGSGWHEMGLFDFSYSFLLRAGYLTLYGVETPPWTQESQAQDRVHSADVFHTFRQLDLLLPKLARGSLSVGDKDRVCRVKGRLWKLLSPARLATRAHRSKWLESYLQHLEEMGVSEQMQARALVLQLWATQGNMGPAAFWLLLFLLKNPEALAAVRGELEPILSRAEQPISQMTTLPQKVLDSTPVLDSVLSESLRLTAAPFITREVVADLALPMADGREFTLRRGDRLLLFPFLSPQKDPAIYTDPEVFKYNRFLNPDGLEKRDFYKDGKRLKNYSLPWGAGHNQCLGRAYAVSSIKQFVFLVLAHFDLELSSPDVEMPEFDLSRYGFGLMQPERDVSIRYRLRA
Procedure: The effect of the compounds of the formula (I) on the thromboxane synthetase enzyme, and the prostacyclin synthetase and cyclooxygenase enzymes has been measured by the following in vitro enzyme assays:
2. Prostacyclin (PGI2) Synthetase
Pig aorta microsomes (Nature, 1976, 263, 663) are incubated (30 sec.: 22° C.) with PGH2 produced as in 1) and aliquots bio-assayed as in 1. […] The test compound is then pre-incubated with the enzyme for 5 minutes, and its ability to prevent the decrease in tension is measured.
The results of these tests are shown in the following Table, which gives the molar concentration of each compound which caused a 50% change in the effect of the relevant enzyme on isometric tension, i.e. caused a 50% inhibition of the action of that enzyme.

[2] = rabbit; intravenous arachidonic acid; cited from earlier work
[3] = test system: human blood platelet aggregation; conditions: human blood platelets; cited from earlier work
cyclo-oxygenase enzyme = conditions: cited from earlier work
aggregation of platelets = conditions: rat, abdominal aorta; cited from earlier work
prostacyclin synthetase [4] = target: T2, prostacyclin synthetase; conditions: pre-incubation of the enzyme; cited from earlier work

NC(=O)Cn1cc(Cn2ccnc2)c2ccccc21 [Example 27, 1-Carbamoylmethyl-3-(1-imidazolylmethyl)indole]
IC50 (thromboxane synthetase): 140 nM
IC50 (prostacyclin synthetase [1]): 100000 nM

O=C(O)c1ccc(Cn2cc(Cn3ccnc3)c3ccccc32)cc1 [Example 24, 1-(4-Carboxybenzyl)-3-(1-imidazolylmethyl)indole]
IC50 (thromboxane synthetase): 0.16 nM
IC50 (prostacyclin synthetase [1]): > 100000 nM

CC(=O)Oc1ccccc1C(=O)O [aspirin]
protection from the lethal effect of arachidonic acid injection [2]: protect the rabbit from the lethal effect of the injection
inhibitory activity in vitro against a variety of aggregating agents [3]: show inhibitory activity in vitro
effect on prostacyclin and thromboxane A2 levels (cyclo-oxygenase enzyme): reduce both the prostacyclin and thromboxane A2 levels
inhibition of the cyclo-oxygenase enzyme (cyclo-oxygenase enzyme): inhibit the cyclo-oxygenase enzyme

O=C(O)c1cccc(Cn2cc(Cn3ccnc3)c3ccccc32)c1 [Example 25, 1-(3-Carboxybenzyl)-3-(1-imidazolylmethyl)indole]
IC50 (thromboxane synthetase): 2.4 nM
IC50 (prostacyclin synthetase [1]): > 100000 nM

O=C(NCCCn1cc(Cn2ccnc2)c2ccccc21)Nc1ccccc1 [Example 47, N-Phenyl-N'-[3-[3-(imidazol-1-ylmethyl)indol-1-yl]propyl]urea]
IC50 (thromboxane synthetase): 5.5 nM
IC50 (prostacyclin synthetase [1]): 40000 nM

O=S(=O)(NCCCn1cc(Cn2ccnc2)c2ccccc21)c1ccccc1 [Example 48, 1-(3-Benzenesulphonylaminopropyl)-3-(1-imidazolylmethyl)indole]
IC50 (thromboxane synthetase): 1 nM
IC50 (prostacyclin synthetase [1]): 100000 nM

O=C(O)CCn1c(C2CC2)c(Cn2ccnc2)c2ccccc21 [Example 14, 1-carboxyethyl-2-cyclopropyl-3-(1-imidazolylmethyl)indole]
IC50 (thromboxane synthetase): 0.037 nM
IC50 (prostacyclin synthetase [1]): 40000 nM

O=C(O)CCn1cc(Cn2ccnc2)c2ccccc21 [Example 11, 1-(2-Carboxyethyl)-3-(1-imidazolylmethyl)indole fumarate monohydrate]
IC50 (thromboxane synthetase): 0.04 nM
IC50 (prostacyclin synthetase [1]): > 100000 nM

NC(=O)c1ccc(Cn2cc(Cn3ccnc3)c3ccccc32)cc1 [Example 38, 1-(4-Carbamoylbenzyl)-3-(1-imidazolylmethyl)indole]
IC50 (thromboxane synthetase): 130 nM

CCOC(=O)c1ccc(Cn2cc(Cn3ccnc3)c3ccccc32)cc1 [Example 7, 1-(4-Ethoxycarbonylbenzyl)-3-(1-imidazolylmethyl)indole hemi-fumarate]
IC50 (thromboxane synthetase): 0.16 nM
IC50 (prostacyclin synthetase [1]): > 100000 nM

CCOC(=O)Cn1cc(Cn2ccnc2)c2ccccc21 [Example 10, 1-Ethoxycarbonylmethyl-3-(1-imidazolylmethyl)indole]
IC50 (thromboxane synthetase): 12 nM
IC50 (prostacyclin synthetase [1]): > 100000 nM

N#CCCn1cc(Cn2ccnc2)c2ccccc21 [Example 1, 1-(2-Cyanoethyl)-3-(1-imidazolylmethyl)indole fumarate]
IC50 (thromboxane synthetase): 18 nM
IC50 (prostacyclin synthetase [1]): 24000 nM

c1ccc2c(c1)c(Cn1ccnc1)cn2CCc1nnn[nH]1 [Example 42, 1-[2-(5-Tetrazolyl)ethyl]-3-(1-imidazolylmethyl)indole]
IC50 (thromboxane synthetase): 0.034 nM
IC50 (prostacyclin synthetase [1]): 45000 nM

N#Cc1ccc(Cn2cc(Cn3ccnc3)c3ccccc32)cc1 [Example 4, 1-(4-Cyanobenzyl)-3-(1-imidazolylmethyl)indole]
IC50 (thromboxane synthetase): 4.8 nM
IC50 (prostacyclin synthetase [1]): 2200 nM

O=C1C(CC[S+]([O-])c2ccccc2)C(=O)N(c2ccccc2)N1c1ccccc1 (centres unmarked) [sulphinpyrazone]
protection from the lethal effect of arachidonic acid injection [2]: protect the rabbit from the lethal effect of the injection
prevention of aggregation of platelets in an extra corporeal loop (aggregation of platelets): prevent the aggregation of platelets
inhibitory activity in vitro against a variety of aggregating agents [3]: show inhibitory activity in vitro

CNC(=O)NCCCn1cc(Cn2ccnc2)c2ccccc21 [Example 46, N-Methyl-N'-[3-[3-(imidazol-1-ylmethyl)indol-1-yl]propyl]urea]
IC50 (thromboxane synthetase): 2.1 nM

O=C(O)CCn1cc(Cn2ccnc2)c2cc(Br)ccc21 [Example 20, 5-bromo-1-(2-carboxyethyl)-3-(1-imidazolylmethyl)indole]
IC50 (prostacyclin synthetase [1]): > 100000 nM

O=C(O)Cn1cc(Cn2ccnc2)c2ccccc21 [Example 23, 1-Carboxymethyl-3-(1-imidazolylmethyl)indole]
IC50 (thromboxane synthetase): 0.8 nM
IC50 (prostacyclin synthetase [1]): > 100000 nM

15-hydroxy-arachidonic acid
prevention of the decrease in PGH2-induced tension (selective PGI2 synthetase inhibitor) (prostacyclin synthetase [4]): prevented completely

CC(C)c1c(Cn2ccnc2)c2ccccc2n1CCC(=O)O [Example 13]
IC50 (thromboxane synthetase): 2 nM
IC50 (prostacyclin synthetase [1]): 100000 nM

CC(C)c1c(Cn2ccnc2)c2ccccc2n1CCC(N)=O [Example 28, 1-(2-Carbamoylethyl)-2-isopropyl-3-(1-imidazolylmethyl)indole]
IC50 (thromboxane synthetase): 6 nM
IC50 (prostacyclin synthetase [1]): 70000 nM

— patent US4273782A, “Inhibition of thromboxane synthetase by 3-(1-Imidazolylalkyl) indoles” (Pfizer Inc., priority 1979, dated 1981)
